These results are taken from US20100234308A1, “WAKE-UP REMEDY” (Kyowa Hakko Kogyo Co., Ltd., priority 2006, published 2010).

The test system of one data set is healthy person. In words: Wake-up remedial effect of alanylglutamine on daily consumption (Test Examples 1 and 2). It counts as in vivo, human. The conditions noted are these: continuously for 1 month. An excerpt: Test examples in which the wake-up remedial effect of alanylglutamine was examined are indicated below.
For data set [1] the following is noted: cited from earlier work.
The conditions of data set [2]: cited from earlier work. The source holds these as a separate data set.

Molecules are shown by their SMILES. Peptide text beside a SMILES is read from it.

For `C[C@H](N)C(=O)N[C@@H](CCC(N)=O)C(=O)O` [alanylglutamine] (H-Ala-Gln-OH), the awaking entry in the data set on healthy person (0.5 g daily before going to bed) is given as “improvement in awaking”. Also, the awaking entry with healthy person (1.5 g daily) is given as “improvement in awaking”. In data set [1] (compared to glutamine), the heat stability result is on record as “superior” and the “solubility in aqueous solutions” value is “superior”. The “degradation in the body” value in data set [2] is “immediately degraded into alanine and glutamine”.

Turning to `NC(=O)CC[C@H](N)C(=O)O` [glutamine, reference compound], the solubility entry in data set [1] is listed as “low-solubility”.
